From US20230085307A1, “PYRIDAZINONE COMPOUND AND HERBICIDE” (NISSAN CHEMICAL CORPORATION, priority 2019, published 2023)

Legend:
late watergrass [1] = assay: Test Example 1: herbicidal activity, application before weed generation under submerged conditions (Table 16, symbol A); assay type: in vivo, late watergrass (Echinochloa oryzicola); conditions: amount of applied herbicide 320 g/ha
Method in brief: (§1)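 Emulsion formulation, water-diluted to set dose, was put onto the flooded surface (4 cm depth, alluvial soil) the same day weeds were sown and 2.5-leaf rice transplanted. After 3 weeks at 25-30 °C under glass, each species was rated 0 (≤5% kill) to 5 (≥90% kill).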

Japanese bulrush = assay: Test Example 1: herbicidal activity, application before weed generation under submerged conditions (Table 16, symbol B); assay type: in vivo, Japanese bulrush (Schoenoplectus juncoides); conditions: amount of applied herbicide 320 g/ha
Method in brief: as §1

late watergrass [2] = assay: Test Example 2: herbicidal activity, application during weed generation under submerged conditions (Table 17, symbol A); assay type: in vivo, late watergrass (Echinochloa oryzicola); conditions: AAH 320 g/ha; application during weed generation, submerged conditions
Method in brief: (§2)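 Alluvial soil in Wagner pots was flooded to 4 cm depth and sown with the three weeds together; pots were kept in a greenhouse at 25° C. to 30° C. At the one to two leaf stage, an emulsion formulation diluted in water to a set rate went onto the water surface; scored three weeks later.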

oval-leafed pondweed = assay: Test Example 2: herbicidal activity, application during weed generation under submerged conditions (Table 17, symbol C); assay type: in vivo, oval-leafed pondweed (Monochoria vaginalis); conditions: AAH 320 g/ha; application during weed generation, submerged conditions
Method in brief: as §2

barnyard grass [3] = assay: Test Example 3: herbicidal effect by foliage application, Wagner pot (Table 18, symbol H); assay type: in vivo, barnyard grass (Echinochloa crus-galli); conditions: for herbicidal effect on H: barnyard grass / Herbicidal effect on H (barnyard grass), foliage application: amount of applied herbicide 320 g/ha
Method in brief: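 Plants were sown in alluvial soil held under 0.1–0.5 cm standing water and grown 14 days in a greenhouse at 25–30 °C. An emulsifiable formulation, water-diluted to the set dose, was then sprayed onto the foliage, and effects were scored three weeks later using previously defined criteria.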

southern crabgrass [4] = assay: Test Example 4: herbicidal effect by soil treatment (Table 19, symbol F); assay type: in vivo, southern crabgrass (Digitaria ciliaris); conditions: amount of applied herbicide 320 g/ha
Method in brief: (§3)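 Seeds were sown in sterilized diluvial soil and covered with about 1.5 cm of soil. An emulsion formulation diluted with water to a predetermined herbicide amount was sprayed evenly onto the soil surface. Plants grew in a greenhouse at 25° C. to 30° C., and the effect was scored three weeks after application using criteria from an earlier test.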

barnyard grass [5] = assay: Test Example 4: herbicidal effect by soil treatment (Table 19, symbol H); assay type: in vivo, barnyard grass (Echinochloa crus-galli); conditions: amount of applied herbicide 320 g/ha
Method in brief: as §3

blackgrass = assay: Test Example 4: herbicidal effect by soil treatment (Table 19, symbol J); assay type: in vivo, blackgrass (Alopecurus myosuroides); conditions: amount of applied herbicide 320 g/ha
Method in brief: as §3

chickweed = assay: Test Example 4: herbicidal effect by soil treatment (Table 19, symbol P); assay type: in vivo, common chickweed (Stellaria media); conditions: amount of applied herbicide 320 g/ha
Method in brief: as §3

false cleavers = assay: Test Example 4: herbicidal effect by soil treatment (Table 19, symbol Q); assay type: in vivo, false cleavers (Galium spurium); conditions: amount of applied herbicide 320 g/ha
Method in brief: as §3

southern crabgrass [6] = assay: Test Example 5: herbicidal effect by foliage application, plastic box (Table 20, symbol F); assay type: in vivo, southern crabgrass (Digitaria ciliaris); conditions: foliage application, 320 g/ha, three weeks after application
Method in brief: (§4)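 Plants sown in sterilized diluvial soil and grown 14 days in a greenhouse at 25° C to 30° C, then sprayed on the foliage with the compound's emulsion diluted in water to a predetermined herbicide amount. Injury to weeds and crops scored three weeks after application on a visual rating scale.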

green foxtail = assay: Test Example 5: herbicidal effect by foliage application, plastic box (Table 20, symbol G); assay type: in vivo, green foxtail (Setaria viridis); conditions: foliage application, 320 g/ha, three weeks after application
Method in brief: as §4

wild oat = assay: Test Example 5: herbicidal effect by foliage application, plastic box (Table 20, symbol I); assay type: in vivo, wild oat (Avena fatua); conditions: foliage application, 320 g/ha, three weeks after application
Method in brief: as §4

windgrass = assay: Test Example 5: herbicidal effect by foliage application, plastic box (Table 20, symbol L); assay type: in vivo, windgrass (Apera spica-venti); conditions: foliage application, 320 g/ha, three weeks after application
Method in brief: as §4

redroot pigweed = assay: Test Example 5: herbicidal effect by foliage application, plastic box (Table 20, symbol N); assay type: in vivo, redroot pigweed (Amaranthus retroflexus); conditions: foliage application, 320 g/ha, three weeks after application
Method in brief: as §4

lambsquarters = assay: Test Example 5: herbicidal effect by foliage application, plastic box (Table 20, symbol O); assay type: in vivo, lambsquarters (Chenopodium album); conditions: foliage application, 320 g/ha, three weeks after application
Method in brief: as §4

persian speedwell = assay: Test Example 5: herbicidal effect by foliage application, plastic box (Table 20, symbol R); assay type: in vivo, Persian speedwell (Veronica persica); conditions: foliage application, 320 g/ha, three weeks after application
Method in brief: as §4

## CCCC(=O)Oc1c(C)nn(C)c(=O)c1-c1c(-c2ccccc2OC)sc2cc(F)ccc12 [3-004]
Late watergrass [1]
  Herbicidal effect, A: late watergrass: 5 (Herbicidal rate of 90% or more (almost completely withered))
Japanese bulrush
  Herbicidal effect, B: Japanese bulrush: 3 (Herbicidal rate of 40% or more and less than 70%)
Late watergrass [2]
  herbicidal effect rating, A: late watergrass: 4 (Herbicidal rate of 70% or more and less than 90%)
oval-leafed pondweed
  herbicidal effect rating, C: oval-leafed pondweed: 4 (Herbicidal rate of 70% or more and less than 90%)
Barnyard grass [3]
  herbicidal effect on H: barnyard grass: 5 (Herbicidal rate of 90% or more (almost completely withered))
Southern crabgrass [4]
  herbicidal effect, F: southern crabgrass: 4 (Herbicidal rate of 70% or more and less than 90%)
Barnyard grass [5]
  herbicidal effect, H: barnyard grass: 4 (Herbicidal rate of 70% or more and less than 90%)
blackgrass
  herbicidal effect, J: blackgrass: 4 (Herbicidal rate of 70% or more and less than 90%)
chickweed
  herbicidal effect, P: chickweed: 5 (Herbicidal rate of 90% or more (almost completely withered))
False cleavers
  herbicidal effect, Q: false cleavers: 5 (Herbicidal rate of 90% or more (almost completely withered))
Southern crabgrass [6]
  F: southern crabgrass, herbicidal effect grade: 3 (Herbicidal rate of 40% or more and less than 70%)
Green foxtail
  G: green foxtail, herbicidal effect grade: 4 (Herbicidal rate of 70% or more and less than 90%)
Wild oat
  I: wild oat, herbicidal effect grade: 4 (Herbicidal rate of 70% or more and less than 90%)
windgrass
  L: windgrass, herbicidal effect grade: 5 (Herbicidal rate of 90% or more (almost completely withered))
Redroot pigweed
  N: redroot pigweed, herbicidal effect grade: 5 (Herbicidal rate of 90% or more (almost completely withered))
lambsquarters
  O: lambsquarters, herbicidal effect grade: 5 (Herbicidal rate of 90% or more (almost completely withered))
Persian speedwell
  R: persian speedwell, herbicidal effect grade: 5 (Herbicidal rate of 90% or more (almost completely withered))

## COc1ccc(-c2sc3cc(F)ccc3c2-c2c(O)c(C)nn(C)c2=O)cc1 [3-005]
Late watergrass [1]
  Herbicidal effect, A: late watergrass: 4 (Herbicidal rate of 70% or more and less than 90%)
Japanese bulrush
  Herbicidal effect, B: Japanese bulrush: 4 (Herbicidal rate of 70% or more and less than 90%)
Late watergrass [2]
  herbicidal effect rating, A: late watergrass: 3 (Herbicidal rate of 40% or more and less than 70%)
oval-leafed pondweed
  herbicidal effect rating, C: oval-leafed pondweed: 4 (Herbicidal rate of 70% or more and less than 90%)
Barnyard grass [3]
  herbicidal effect on H: barnyard grass: 5 (Herbicidal rate of 90% or more (almost completely withered))
Southern crabgrass [4]
  herbicidal effect, F: southern crabgrass: 0 (Herbicidal rate of 5% or less (almost no effect))
Barnyard grass [5]
  herbicidal effect, H: barnyard grass: 3 (Herbicidal rate of 40% or more and less than 70%)
blackgrass
  herbicidal effect, J: blackgrass: 0 (Herbicidal rate of 5% or less (almost no effect))
chickweed
  herbicidal effect, P: chickweed: 5 (Herbicidal rate of 90% or more (almost completely withered))
False cleavers
  herbicidal effect, Q: false cleavers: 0 (Herbicidal rate of 5% or less (almost no effect))
Southern crabgrass [6]
  F: southern crabgrass, herbicidal effect grade: 3 (Herbicidal rate of 40% or more and less than 70%)
Green foxtail
  G: green foxtail, herbicidal effect grade: 4 (Herbicidal rate of 70% or more and less than 90%)
Wild oat
  I: wild oat, herbicidal effect grade: 3 (Herbicidal rate of 40% or more and less than 70%)
windgrass
  L: windgrass, herbicidal effect grade: 3 (Herbicidal rate of 40% or more and less than 70%)
Redroot pigweed
  N: redroot pigweed, herbicidal effect grade: 5 (Herbicidal rate of 90% or more (almost completely withered))
lambsquarters
  O: lambsquarters, herbicidal effect grade: 5 (Herbicidal rate of 90% or more (almost completely withered))
Persian speedwell
  R: persian speedwell, herbicidal effect grade: 5 (Herbicidal rate of 90% or more (almost completely withered))

## CCCC(=O)Oc1c(C)nn(C)c(=O)c1-c1c(-c2ccc(F)cc2OCC)sc2cc(OCC)ccc12 [3-096]
Late watergrass [1]
  Herbicidal effect, A: late watergrass: 5 (Herbicidal rate of 90% or more (almost completely withered))
Japanese bulrush
  Herbicidal effect, B: Japanese bulrush: 5 (Herbicidal rate of 90% or more (almost completely withered))
Late watergrass [2]
  herbicidal effect rating, A: late watergrass: 4 (Herbicidal rate of 70% or more and less than 90%)
oval-leafed pondweed
  herbicidal effect rating, C: oval-leafed pondweed: 4 (Herbicidal rate of 70% or more and less than 90%)
Barnyard grass [3]; 320 g/ha
  herbicidal effect on barnyard grass (H): 5 (Herbicidal rate of 90% or more (almost completely withered))
Barnyard grass [5]
  H: barnyard grass, herbicidal effect grade: 0 (Herbicidal rate of 5% or less (almost no effect))
blackgrass
  J: blackgrass, herbicidal effect grade: 3 (Herbicidal rate of 40% or more and less than 70%)
chickweed
  P: chickweed, herbicidal effect grade: 5 (Herbicidal rate of 90% or more (almost completely withered))
False cleavers
  Q: false cleavers, herbicidal effect grade: 5 (Herbicidal rate of 90% or more (almost completely withered))
Southern crabgrass [6]
  F: southern crabgrass, herbicidal effect grade: 5 (Herbicidal rate of 90% or more (almost completely withered))
Green foxtail
  G: green foxtail, herbicidal effect grade: 4 (Herbicidal rate of 70% or more and less than 90%)
Wild oat
  I: wild oat, herbicidal effect grade: 5 (Herbicidal rate of 90% or more (almost completely withered))
windgrass
  L: windgrass, herbicidal effect grade: 5 (Herbicidal rate of 90% or more (almost completely withered))
Redroot pigweed
  N: redroot pigweed, herbicidal effect grade: 5 (Herbicidal rate of 90% or more (almost completely withered))
lambsquarters
  O: lambsquarters, herbicidal effect grade: 5 (Herbicidal rate of 90% or more (almost completely withered))
Persian speedwell
  R: persian speedwell, herbicidal effect grade: 5 (Herbicidal rate of 90% or more (almost completely withered))

## CCOc1ccc(-c2oc3ccc(F)cc3c2-c2c(O)c(C)nn(C)c2=O)cc1 [9-021]
Late watergrass [1]
  Herbicidal effect, A: late watergrass: 5 (Herbicidal rate of 90% or more (almost completely withered))
Japanese bulrush
  Herbicidal effect, B: Japanese bulrush: 5 (Herbicidal rate of 90% or more (almost completely withered))
Late watergrass [2]
  herbicidal effect rating, A: late watergrass: 4 (Herbicidal rate of 70% or more and less than 90%)
oval-leafed pondweed
  herbicidal effect rating, C: oval-leafed pondweed: 4 (Herbicidal rate of 70% or more and less than 90%)
Barnyard grass [3]
  Herbicidal effect on H (barnyard grass), foliage application: 3 (Herbicidal rate of 40% or more and less than 70%)
Southern crabgrass [4]
  F: southern crabgrass, herbicidal effect grade: 4 (Herbicidal rate of 70% or more and less than 90%)
Barnyard grass [5]
  H: barnyard grass, herbicidal effect grade: 4 (Herbicidal rate of 70% or more and less than 90%)
blackgrass
  J: blackgrass, herbicidal effect grade: 4 (Herbicidal rate of 70% or more and less than 90%)
chickweed
  P: chickweed, herbicidal effect grade: 0 (Herbicidal rate of 5% or less (almost no effect))
False cleavers
  Q: false cleavers, herbicidal effect grade: 0 (Herbicidal rate of 5% or less (almost no effect))
Southern crabgrass [6]
  herbicidal effect on southern crabgrass (F): 4 (Herbicidal rate of 70% or more and less than 90%)
Green foxtail
  herbicidal effect on green foxtail (G): 4 (Herbicidal rate of 70% or more and less than 90%)
Wild oat
  herbicidal effect on wild oat (I): 4 (Herbicidal rate of 70% or more and less than 90%)
windgrass
  herbicidal effect on windgrass (L): 0 (Herbicidal rate of 5% or less (almost no effect))
lambsquarters
  herbicidal effect on lambsquarters (O): 3 (Herbicidal rate of 40% or more and less than 70%)
Persian speedwell
  herbicidal effect on persian speedwell (R): 5 (Herbicidal rate of 90% or more (almost completely withered))

## CCCOc1ccc(-c2oc3ccc(F)cc3c2-c2c(O)c(C)nn(C)c2=O)cc1 [9-023]
Late watergrass [1]
  Herbicidal effect, A: late watergrass: 5 (Herbicidal rate of 90% or more (almost completely withered))
Japanese bulrush
  Herbicidal effect, B: Japanese bulrush: 5 (Herbicidal rate of 90% or more (almost completely withered))
Late watergrass [2]
  herbicidal effect rating, A: late watergrass: 5 (Herbicidal rate of 90% or more (almost completely withered))
oval-leafed pondweed
  herbicidal effect rating, C: oval-leafed pondweed: 5 (Herbicidal rate of 90% or more (almost completely withered))
Barnyard grass [3]
  Herbicidal effect on H (barnyard grass), foliage application: 5 (Herbicidal rate of 90% or more (almost completely withered))
Southern crabgrass [4]
  F: southern crabgrass, herbicidal effect grade: 4 (Herbicidal rate of 70% or more and less than 90%)
Barnyard grass [5]
  H: barnyard grass, herbicidal effect grade: 5 (Herbicidal rate of 90% or more (almost completely withered))
blackgrass
  J: blackgrass, herbicidal effect grade: 0 (Herbicidal rate of 5% or less (almost no effect))
chickweed
  P: chickweed, herbicidal effect grade: 0 (Herbicidal rate of 5% or less (almost no effect))
False cleavers
  Q: false cleavers, herbicidal effect grade: 0 (Herbicidal rate of 5% or less (almost no effect))
Southern crabgrass [6]
  herbicidal effect on southern crabgrass (F): 4 (Herbicidal rate of 70% or more and less than 90%)
Green foxtail
  herbicidal effect on green foxtail (G): 5 (Herbicidal rate of 90% or more (almost completely withered))
Wild oat
  herbicidal effect on wild oat (I): 3 (Herbicidal rate of 40% or more and less than 70%)
windgrass
  herbicidal effect on windgrass (L): 4 (Herbicidal rate of 70% or more and less than 90%)
lambsquarters
  herbicidal effect on lambsquarters (O): 5 (Herbicidal rate of 90% or more (almost completely withered))
Persian speedwell
  herbicidal effect on persian speedwell (R): 5 (Herbicidal rate of 90% or more (almost completely withered))
